Measured values as given in ChEMBL document CHEMBL1128601, “Development of a novel series of trialkoxyaryl derivatives as specific and competitive antagonists of platelet activating factor” (J Med Chem, 1995).

Assays:
Oryctolagus cuniculus [1] = species: Oryctolagus cuniculus; assay: Activity against adenosine diphosphate (ADP) induced platelet aggregation
[2] = system: Platelet-activating factor receptor (Oryctolagus cuniculus); assay: Competitive inhibition of PAF-induced platelet aggregation was measured as IC50 ratio is (1000 x the IC50 of the test compound divided by the IC50 of a standard)
Oryctolagus cuniculus [3] = species: Oryctolagus cuniculus; assay: Competitive inhibition of PAF-induced platelet aggregation was measured as IC50 ratio = [1000 x the IC50 of the test compound divided by the IC50 of a standard (3)]; assay type: functional
Oryctolagus cuniculus [4] = species: Oryctolagus cuniculus; assay: Activity against U-46,619 induced platelet aggregation; no effect at 20 uM; assay type: functional

Row | Compound | IC50 (Oryctolagus cuniculus [1]) | IC50 ratio [2] | IC50 ratio (Oryctolagus cuniculus [3]) | IC50 (Oryctolagus cuniculus [4])
1 | CCCCCCOc1c(OC)cc(C(=O)OCCC[N+](C)(C)C)cc1OC.[I-] | Not Active | 7000 | – | –
2 | CCCCCCOc1c(OC)cc(C(=O)Oc2ccccc2CC[N+](C)(C)C)cc1OC | – | 507 | – | –
3 | CCCCCCOc1c(OC)cc(C(=O)OCC[N+](C)(C)C)cc1OC.[I-] | Not Active | 1000 | – | –
4 | CCCCCCOc1c(OC)cc(C(=O)OCCCC[N+](C)(C)C)cc1OC.[I-] | Not Active | 164 | – | –
5 | CCCCCCOc1c(OC)cc(C(=O)OCCCC[N+](CC)(CC)CC)cc1OC.[I-] | Not Active | 115 | – | –
6 | CCCCCCOc1c(OC)cc(CC(=O)OCCC[N+](C)(C)C)cc1OC | – | 820 | – | –
7 | CCCCCCOc1c(OC)cc(C(=O)Oc2ccc3c(ccc[n+]3C)c2)cc1OC | – | 13 | – | –
8 | COc1cc(C(=O)OCC[N+](C)(C)C)cc(OC)c1OC.[I-] | – | – | 15000 | –
9 | CCCCCCCOc1c(OC)cc(C(=O)OCCCC[N+](C)(C)C)cc1OC.[I-] | Not Active | 199 | – | –
10 | CCCCCCOc1c(OC)cc(C(=O)Oc2cccc3ccc[n+](C)c23)cc1OC.[I-] | Not Active | 11.7 | – | –
11 | CCCCCCOc1ccc(C(=O)OCCCC[N+](C)(C)C)cc1OC.[I-] | Not Active | 1740 | – | –
12 | CCCCCCCCCCCCCCCCOc1c(OC)cc(C(=O)OCCCC[N+](C)(C)C)cc1OC | – | 35 | – | –
13 | CCCCCCOc1c(OC)cc(C(=O)OCCc2sc[n+](C)c2C)cc1OC.[I-] | Not Active | 114 | – | –
14 | CCCCCCOc1c(OC)cc(C(=O)OCCc2scnc2C)cc1OC | – | 116 | – | –
15 | COc1cc(C(=O)OCCCC[N+](C)(C)C)cc(OC)c1OCC1CCCCC1.[I-] | – | 443 | – | Not Active
16 | CCCCCCOc1c(OC)cc(C(=O)OCCCC[n+]2cccc3ccccc32)cc1OC.[Cl-] | Not Active | 57.3 | – | –
17 | CCCCCCOc1c(OC)cc(/C=C/CCCC[N+](C)(C)C)cc1OC.[I-] | Not Active | 133 | – | –
18 | COc1cc(C(=O)OCCCC[N+](C)(C)C)cc(OC)c1OCc1ccccc1.[I-] | Not Active | 533 | – | –

Row | Compound | IC50 (Oryctolagus cuniculus [1]) | IC50 ratio [2] | IC50 ratio (Oryctolagus cuniculus [3]) | IC50 (Oryctolagus cuniculus [4])
19 | CCCCCCOc1c(OC)cc(C(=O)OCc2ccccc2C[N+](C)(C)C)cc1OC | – | 144 | – | –
20 | CCCCCCOc1c(OC)cc(C(=O)OCCCCN(C)C)cc1OC | Not Active | 1500 | – | –
21 | CCCCCCOc1c(C)cc(C(=O)OCCCC[N+](C)(C)C)cc1C | – | 265 | – | –
22 | CCCCCCOc1c(OC)cc(C(=O)OCCCC[n+]2ccsc2)cc1OC | – | 48 | – | –
23 | CCCCCOc1c(OC)cc(C(=O)OCCCC[N+](C)(C)C)cc1OC.[I-] | Not Active | 540 | – | –
24 | CCCCCCOc1c(OC)cc(C(=O)OCCCCCC[N+](C)(C)C)cc1OC | – | 270 | – | –
25 | CCCCCCCCCCOc1c(OC)cc(C(=O)OCC[N+](C)(C)C)cc1OC | – | 153 | – | –
26 | COc1cc(C(=O)OCCCC[N+](C)(C)C)cc(OC)c1OCCC1CCCC1 | – | 203 | – | –
27 | CCCCCCOc1c(OC)cc(C=CCCCC[N+](C)(C)C)cc1OC.[I-] | Not Active | 200 | – | –
28 | CCCCCCOc1c(OC)cc(OC(=O)CCCC[N+](C)(C)C)cc1OC.[I-] | Not Active | 833 | – | –
29 | CCCCCCOc1c(OC)cc(C(=O)OCCCC[n+]2ccccc2)cc1OC.[I-] | Not Active | 107 | – | –
30 | CCCCCCOc1c(Cl)cc(C(=O)OCCCC[N+](C)(C)C)cc1OC | – | 263 | – | –
31 | CCCCOc1c(OC)cc(C(=O)OCC[N+](C)(C)C)cc1OC.[I-] | Not Active | 3370 | – | –
32 | CCCCCCOc1c(OC)cc(CCCCc2scnc2C)cc1OC | – | 14.7 | – | –
33 | CCCCCCOc1ccc(C(=O)OCCCC[N+](C)(C)C)cc1 | – | 1400 | – | –
34 | CCCCCCCCOc1c(OC)cc(C(=O)OCCCC[N+](C)(C)C)cc1OC | – | 103 | – | –
35 | CCCCCCOc1c(OC)cc(CCCCCC[N+](C)(C)C)cc1OC | – | 65 | – | –
